According to patent publication US20020103127A1, “Inhibitors of proteasomal activity for stimulating hair growth” (priority 1998, published 2002):
Where a SMILES comes first, the peptide text is derived from it. [ ]: non-standard residue; d: D form. The star is where a group is joined. Nva = CCC[C@H](N)C(=O)O; Cbz = O=C(OCc1ccccc1)*; OtBu = CC(C)(C)O*

Key:
[1] = test system: hair follicles; assay: Modified in vivo calvarial assay: number of hair follicles after injection over the calvaria; parameters: species or system Swiss ICR mice; conditions: for number of hair follicles: administered in the same way as PSI (injection over the calvaria)
Experimental: Male ICR Swiss white mice, aged 4-6 weeks and weighing 13-26 gm, are employed, using 4-5 mice per group. The calvarial bone growth assay is performed as described in PCT application WO95/242 11, incorporated by reference. Briefly, the test compound or appropriate control vehicle is injected into the subcutaneous tissue over the right calvaria of normal mice. Typically, the control vehicle is the vehicle in which the compound was solubilized, and is PBS containing 5% DMSO or is PBS containing Tween (2 μl/10 ml). The animals are sacrificed on day 14 and bone growth measured by histomorphometry. Bone samples for quantitation are cleaned from adjacent tissues and fixed in 10% buffered formalin for 24-48 hours, decalcified in 14% EDTA for 1-3 weeks, processed through graded alcohols; and embedded in paraffin wax. Three to five μm sections of the calvaria are prepared, and representative sections are selected for histomorphometric assessment of the effects on bone formation and bone resorption. Sections are measured by using a camera lucida attachment to trace directly the microscopic image onto a digitizing plate. Bone changes are measured on sections cut 200 μm apart, over 4 adjacent 1×1 mm fields on both the injected and noninjected sides of the calvaria. New bone is identified by its characteristic woven structure, and osteoclasts and osteoblasts are identified by their distinctive morphology. Histomorphometry software (OsteoMeasure, Osteometrix, Inc., Atlanta) is used to process digitizer input to determine cell counts and measure areas or perimeters.
(§1) The assay described above to assess the effect of compounds on calvarial bone growth can also be used to assess the ability of compounds to stimulate hair growth. The test compound or appropriate control vehicle is applied to the upper and lower back of male ICR Swiss white mice either topically or by subcutaneous injection. The vehicle is selected as appropriate for the compound to be tested and for the route of administration. Optionally, the hair in the test area may be removed prior to administration. After a suitable interval, typically 7 days, the mice are anesthetized and a biopsy of the dorsal treatment area is taken using a 6 mm dermal punch. The specimens are fixed in 10% buffered formalin and imbedded in paraffin wax, and sectioned and stained to observe hair follicles. In addition, photography can be used to observe and record hair growth; typically such growth is observed after 14-18 days. After a suitable interval, typically 21 days, the animals may be euthanized and the hair analyzed for fiber analysis and the tissue from the treatment area analyzed for quantitation of hair follicles.
The in vivo bone calvarial growth assay of Example 3 was modified to observe the number of hair follicles in treated mice. […]

[2] = test system: hair follicles; assay: Stimulation of hair growth: subcutaneous injection into scalp and dorsal region after wax hair stripping; assay type: in vivo, Male Swiss ICR mice; conditions: 1 mg/kg/day s.c. three times a day for five days
Source text: as §1
Male Swiss ICR mice were first treated to remove hair from the scalp and dorsal regions as follows. Paraffin wax was liquefied by heating to 55° C. and the liquefied wax then applied by brush to the scalp and/or back (under anesthesia). The wax was allowed to solidify and then removed. The day following hair stripping, PSI (1 mg/kg/day) was injected subcutaneously three times a day for five days into the scalp and dorsal region.
The mice were sacrificed on day 21 and histology was performed on the dermis of the scalp and of the dorsal region. […] Upon closer examination, it was observed that mice that had received only vehicle had quiescent hair follicles.

[3] = test system: hair follicles; assay: Topical administration of PSI solution, hair growth; assay type: in vivo, mice
Experimental: PSI was prepared as a topical formulation, where the vehicle was 50% propylene glycol, 30% ethanol, 20% deionized water, at 0.1% concentration of PSI. The solution was applied 3 times a day for 5 days. The mice in a treated group were observed as compared to controls similarly treated with vehicle alone.
When the protocol above was repeated using a 0.5% solution of PSI in groups containing 5 mice each, the number of hairs per 0.8 mm^2 was 60 in the treated mice versus about 10 in the control group. The percentage of follicle area in a region of about 0.8 mm^2 was about 30% as an average in the treated group as compared to 15% as an average in the control group.

[4] = test system: hair follicles; assay: Topical dose response of PSI (dose requirements); assay type: in vivo, mice
Experimental: In order to determine the minimal effective dosage of PSI, when used topically, a dose response curve for PSI was prepared. All experiments were preformed according to current good laboratory practice regulations (21CFR58). The mice were divided into 7 groups, 10 mice each, wherein one group was control treated only with vehicle and groups 1-6 with a series of increasing concentrations of PSI in a vehicle comprising 50% propylene glycol, 30% ethanol, 20% deionized water. The concentrations were 0.006%, 0.012%, 0.025%, 0.05%, 0.11% and 0.5%.
The mice were anesthetized (50 μl Mouse Cocktail containing 3 ml ketamine, 2 ml small animal rompum, 5 ml NaCl), identified by ear punch code, weighed and the hair on the dorsal side removed by waxing as described in Example 6. After waxing, the animals were photographed. On the following day (day 1), 100 μl of PSI at the above concentrations in vehicle was brushed onto the area of removed hair. […]
On Day 7 mice were anesthetized and a biopsy of the dorsal treatment area taken using a 6 mm dermal punch; the specimens were fixed in 10% buffered formalin and embedded in paraffin wax. Sections were cut using a standard microtome.
Mice were monitored daily for signs of hair growth, and any hair growth was recorded by photography. On day 21 animals were euthanized (75 mg/kg body weight phenobarbital, IP injection), 2 cm hair samples were taken for optical based fiber analysis, and the remaining dorsal treatment area was fixed in 10% buffered formalin for further histological analysis. Analysis included quantification of hair thickness and quantification of mature hair follicles. Results were expressed as the mean =+/− the standard error of the mean. Data were analyzed by repeated measures of analysis of variance followed by the Tukey-Kramer post test P values of <0.05 were considered significant.

[5] = test system: calvarial bone; assay: in vitro calvarial assay; assay type: cell-based
[6] = compared with proteasome inhibitors such as MG-132
[7] = topical 0.5% solution of PSI, 3 times a day for 5 days, groups of 5 mice

SMILES: CCC[C@@H](C=O)NC(=O)[C@H](CC(C)C)NC(=O)[C@H](CC(C)C)NC(=O)OCc1ccccc1 [MG115, N-carbobenzoyl-Leu-Leu-Nva-CHO] (Cbz-Leu-Leu-[Nva]-aldehyde)
- number of hair follicles ([1]; 10 mg/kg): stimulated an increase in the number of hair follicles

SMILES: CC(C)C[C@@H](C=O)NC(=O)[C@H](CC(C)C)NC(=O)[C@H](CC(C)C)NC(=O)OCc1ccccc1 [MG132, N-carbobenzoyl-Leu-Leu-Leu-CHO] (Cbz-Leu-Leu-Leu-aldehyde)
- number of hair follicles ([1]; 10 mg/kg): stimulated an increase in the number of hair follicles

SMILES: CC[C@H](C)[C@H](NC(=O)OCc1ccccc1)C(=O)N[C@@H](CCC(=O)OC(C)(C)C)C(=O)N[C@@H](C)C(=O)N[C@H](C=O)CC(C)C [PSI, N-carbobenzoyl-Ile-Glu-(OtBu)-Ala-Leu-CHO] (Cbz-IE(OtBu)AL-aldehyde)
- number of hair follicles (histology of the calvaria) versus control mice ([1]; 5mg/kg/day injected three times a day for 5 days over the calvaria, sacrificed sixteen days later): strikingly large increase in the number of hair follicles
- hair growth rate versus control group ([2]; by day 18): hair growth rate greater than that of the mice in the control group
- number of hair follicles (dermal punch biopsy histology) versus control mice ([2]; day 7): large increase in the number of hair follicles
- effect on quiescent hair follicles (histology) ([2]; day 21): stimulated to differentiate into mature hair follicles and to migrate to the lower region of the dermis
- mature hair follicles in dermis of scalp and dorsal region (histology) ([2]; day 21): mature hair follicles in numbers much greater than in controls had migrated to the lower region of the dermis
- hair growth relative to vehicle controls ([3]; topical 0.1% PSI in 50% propylene glycol, 30% ethanol, 20% water, 3 times a day for 5 days, day 16): stimulation of hair growth relative to the controls
- number of hairs per 0.8 mm^2 [3, 7]: 60 per 0.8 mm^2
- percentage of follicle area in a region of about 0.8 mm^2 (average) [3, 7]: about 30%
- thickness of hair and hair shaft ([3]; topical PSI): able to thicken both the hair and the hair shaft
- hair count ([3]; topical PSI, follicle area greater than 0.01 mm^2): increases hair count
- efficacy on hair growth (additional experiments) ([4]; 0.1% applied topically 3 times a day for 5 days): also effective
- gross observation of hair growth ([4]; mice receiving an effective topical dose): an enhanced rate of hair growth, a thickening of hair diameter, increase in sheath diameter, and differentiation of quiescent hair follicles into more mature forms
- minimal effective dose (topical concentration) ([4]; topical, applied 1 time a day for 4 days, 100 μl in 50% propylene glycol, 30% ethanol, 20% water): 0.5%

SMILES: CC(=O)N[C@@H](CSC(=O)[C@]1([C@@H](O)C(C)C)NC(=O)[C@H](C)[C@@H]1O)C(=O)O [lactacysin, lactacystin]
- number of hair follicles ([1]; dose not given): stimulated an increase in the number of hair follicles

SMILES: CC(=O)CCCCn1c(=O)c2c(ncn2C)n(C)c1=O [pentoxyfilline]
- activity in the in vitro calvarial assay [5]: active

SMILES: C=C(C)[C@]12C[C@@H](C)[C@@]34O[C@](Cc5ccccc5)(O[C@@H]1[C@@H]3C=C(COC(=O)Cc1ccc(O)c(OC)c1)C[C@]1(O)C(=O)C(C)=C[C@@H]41)O2 [resiniferatoxin]
- activity in the ABA assay [6]: less active
